The text below walks through data of patent US20240100104A1, “METHODS AND COMPOSITION FOR THE TREATMENT OF AUTISM SPECTRUM DISORDER” (The General Hospital Corporation, priority 2020, published 2024).

The test system of series [1] is mouse models of ASD. The following applies: two mouse models of ASD; cited from earlier work.
In series [2] the test system is patients with ASD. Nature of the series: Clinical Global Impression-Improvement (CGI-I). It counts as in vivo, human. The settings on record: vs control group; P<0.05 only for combination. The protocol: FIG. 2. Proportion of subjects displaying improvement in CGI-I overtime among all subjects within a treatment condition.
Clinical Global Impression (CGI) was assessed to evaluate ASD symptoms and the relative extent of improvement in symptoms at each visiting time. […] The waterfall data of CGI score reduction in each group is shown in supplement FIG. 6.
This clinical trial is a randomized, double-blind, and placebo-controlled study in accordance with the Consolidated Standards of Reporting Trials (CONSORT) guidelines. Subjects were randomized to two groups with 1:1 ratio into this two-stage study. To achieve a statistical power of 80% for primary outcomes with a large effect size of 0.8 (Cohen's d) assumed, a total of 60 participants (30 in each arm) were required. However, as we are primarily interested in studying the preliminary effects of the proposed treatment, we enrolled and randomized 35 subjects who were included in the data analysis. In stage 1, the probiotics group received oral probiotics PS128 while the placebo group received oral placebo for 16 weeks. In stage 2, both groups continued their respective administration and simultaneously added intranasal oxytocin spray. The treatment proceeded for a total of 28 weeks with 3 visits for outcomes measurement at 0, 16 weeks, and 28 weeks (V1, V2, and V3, respectively). […]

For series [3] the following is noted: 32 IU per day, patients age 3-8 years old; cited from earlier work.

As for `CC[C@H](C)[C@@H]1NC(=O)[C@H](Cc2ccc(O)cc2)NC(=O)[C@@H](N)CSSC[C@@H](C(=O)N2CCC[C@H]2C(=O)N[C@@H](CC(C)C)C(=O)NCC(N)=O)NC(=O)[C@H](CC(N)=O)NC(=O)[C@H](CCC(N)=O)NC1=O` [OXT, Oxytocin], in series [1], the effect on sociability entry is on record as “enhanced sociability”. Also, the “proportion of subjects showing improvement in CGI-I (CGI-I≤3)” value in series [2] was “non-significant, though a trend of improvement”. Moreover, in series [3], the safety of dosage entry is “safe and adequate”.
